This is an account of results in PubChem BioAssay AID256 (DTP/NCI, 2004).

The test system of the assay is CD2F1 mice, L1210 leukemia ip, survival T/C. Nature of the assay: NCI In Vivo Anticancer Drug Screen. Data for tumor model L1210 Leukemia (intraperitoneal) in CD2F1 (CDF1) mice. As to conditions: higher = longer survival. The essentials: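 In this screen, transplantable tumors were grown in mice given either the compound or its vehicle. Results were expressed as the treated measurement relative to the control measurement.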

[1] abbreviates: endpoint: mean survival time, dose: 100.0 mg/kg/injection, schedule: Q01DX001 (ip), vehicle: saline with Tween-80.
Setting [2] is: endpoint: mean survival time, dose: 100.0 mg/kg/injection, schedule: Q04DX003 (ip), vehicle: saline.
Setting [3] is: endpoint: mean survival time, dose: 200.0 mg/kg/injection, schedule: Q04DX003 (ip), vehicle: saline.
The mark [4] stands for this setting: endpoint: mean survival time, dose: 100.0 mg/kg/injection, schedule: Q04DX003 (ip), vehicle: saline with Tween-80.
The mark [5] stands for this setting: endpoint: mean survival time, dose: 200.0 mg/kg/injection, schedule: Q04DX003 (ip), vehicle: saline with Tween-80.
Where [6] appears, read: endpoint: mean survival time, dose: 400.0 mg/kg/injection, schedule: Q04DX003 (ip), vehicle: saline with Tween-80.

Toxic doses and inconclusive results are not listed.

Turning to `O=C1/C(=C\c2ccccc2)Oc2cc(O)c(O)cc21`, the T/C reads like this: (endpoint: mean survival time, dose: 25.0 mg/kg/injection, schedule: Q01DX001 (ip), vehicle: saline with Tween-80) 100 % of control; (endpoint: mean survival time, dose: 50.0 mg/kg/injection, schedule: Q01DX001 (ip), vehicle: saline with Tween-80) 104 % of control; under setting [1], 100 % of control.
`CC(COCc1ccccc1)COP(N)(=O)N(CCCl)CCCl` (centres undefined): the T/C (endpoint: mean survival time, dose: 15.62 mg/kg/injection, schedule: Q01DX001 (ip), vehicle: DMSO) is 97 % of control; the T/C (endpoint: mean survival time, dose: 31.3 mg/kg/injection, schedule: Q01DX001 (ip), vehicle: DMSO) was 98 % of control; the T/C (endpoint: mean survival time, dose: 62.5 mg/kg/injection, schedule: Q01DX001 (ip), vehicle: DMSO) is 101 % of control; the T/C (endpoint: mean survival time, dose: 125.0 mg/kg/injection, schedule: Q01DX001 (ip), vehicle: DMSO) was 111 % of control; the T/C (endpoint: mean survival time, dose: 250.0 mg/kg/injection, schedule: Q01DX001 (ip), vehicle: DMSO) is 103 % of control; the T/C (endpoint: mean survival time, dose: 500.0 mg/kg/injection, schedule: Q01DX001 (ip), vehicle: DMSO) was 101 % of control.
As for `O=c1nc(NCCc2c[nH]c3ccccc23)ccn1C1OC(CO)C(O)C1O` (centres undefined), the T/C runs as follows: (endpoint: median survival time, dose: 12.5 mg/kg/injection, schedule: Q01DX005 (ip), vehicle: distilled water + Tween-80) 101 % of control; (endpoint: median survival time, dose: 25.0 mg/kg/injection, schedule: Q01DX005 (ip), vehicle: distilled water + Tween-80) 100 % of control; (endpoint: median survival time, dose: 50.0 mg/kg/injection, schedule: Q01DX005 (ip), vehicle: distilled water + Tween-80) 98 % of control; (endpoint: median survival time, dose: 100.0 mg/kg/injection, schedule: Q01DX005 (ip), vehicle: distilled water + Tween-80) 98 % of control; (endpoint: median survival time, dose: 200.0 mg/kg/injection, schedule: Q01DX005 (ip), vehicle: distilled water + Tween-80) 98 % of control.
With `Nc1nc2c(ncn2-c2ccc(NC(=O)c3cccc(S(=O)(=O)F)c3)cc2)c(=O)[nH]1`, the T/C reads like this: (endpoint: mean survival time, dose: 37.5 mg/kg/injection, schedule: Q04DX002 (ip), vehicle: saline with Tween-80) 90 % of control; (endpoint: mean survival time, dose: 75.0 mg/kg/injection, schedule: Q04DX002 (ip), vehicle: saline with Tween-80) 111 % of control; (endpoint: mean survival time, dose: 150.0 mg/kg/injection, schedule: Q04DX002 (ip), vehicle: saline with Tween-80) 94 % of control.
Take `CCC1(CC)COC(C)(C(=O)O)OC1`: the T/C under setting [2] is 111 % of control; the T/C under setting [3] was 96 % of control; the T/C (endpoint: mean survival time, dose: 400.0 mg/kg/injection, schedule: Q04DX003 (ip), vehicle: saline) was 100 % of control.
For the molecule `CNC(C)c1ccc(C)cc1` (centres undefined), the T/C was 98 % of control (endpoint: mean survival time, dose: 6.25 mg/kg/injection, schedule: Q04DX003 (ip), vehicle: saline with Tween-80); 108 % of control (endpoint: mean survival time, dose: 12.5 mg/kg/injection, schedule: Q04DX003 (ip), vehicle: saline with Tween-80); 101 % of control (endpoint: mean survival time, dose: 25.0 mg/kg/injection, schedule: Q04DX003 (ip), vehicle: saline with Tween-80).
With `CC(=O)C1(O)Cc2c(O)c3c(c(O)c2C(OC2CC(N)C(O)C(C)O2)C1)C(=O)c1ccccc1C3=O` (centres undefined), the T/C by setting is: (endpoint: mean survival time, dose: 0.03 mg/kg/injection, schedule: Q01DX009 (ip), vehicle: water) 104 % of control; (endpoint: mean survival time, dose: 0.05 mg/kg/injection, schedule: Q01DX009 (ip), vehicle: water) 110 % of control; (endpoint: mean survival time, dose: 0.1 mg/kg/injection, schedule: Q01DX009 (ip), vehicle: water) 117 % of control; (endpoint: mean survival time, dose: 0.4 mg/kg/injection, schedule: Q01DX009 (ip), vehicle: water) 151 % of control; (endpoint: mean survival time, dose: 0.8 mg/kg/injection, schedule: Q01DX009 (ip), vehicle: water) 92 % of control.
Turning to `O=C1C=CC(=O)C(c2cn(C3CC(O)C(CO)O3)c(=O)[nH]c2=O)=C1` (centres undefined), the T/C was 111 % of control (endpoint: median survival time, dose: 12.5 mg/kg/injection, schedule: Q01DX005 (ip), vehicle: saline with Tween-80); 111 % of control (endpoint: median survival time, dose: 25.0 mg/kg/injection, schedule: Q01DX005 (ip), vehicle: saline with Tween-80); 108 % of control (endpoint: median survival time, dose: 50.0 mg/kg/injection, schedule: Q01DX005 (ip), vehicle: saline with Tween-80); 121 % of control (endpoint: median survival time, dose: 100.0 mg/kg/injection, schedule: Q01DX005 (ip), vehicle: saline with Tween-80); 105 % of control (endpoint: median survival time, dose: 200.0 mg/kg/injection, schedule: Q01DX005 (ip), vehicle: saline with Tween-80).
`CCCCC(=O)C(=O)OC(OC(=O)C(=O)CCCC)c1ccccc1`: the T/C was 93 % of control (endpoint: mean survival time, dose: 75.0 mg/kg/injection, schedule: Q01DX001 (ip), vehicle: saline) and 97 % of control (endpoint: mean survival time, dose: 150.0 mg/kg/injection, schedule: Q01DX001 (ip), vehicle: saline).
Consider `COc1ccc(Cl)cc1[N+](=O)[O-]`, for which the T/C runs as follows: under setting [4], 97 % of control; under setting [5], 94 % of control; under setting [6], 95 % of control.
As to `CCCCCCCCOCCOCCOCCOCCOCCCCCCCC`, the T/C runs as follows: (endpoint: mean survival time, dose: 100.0 mg/kg/injection, schedule: Q04DX002 (ip), vehicle: saline with Tween-80) 102 % of control; (endpoint: mean survival time, dose: 200.0 mg/kg/injection, schedule: Q04DX002 (ip), vehicle: saline with Tween-80) 98 % of control; (endpoint: mean survival time, dose: 400.0 mg/kg/injection, schedule: Q04DX002 (ip), vehicle: saline with Tween-80) 102 % of control.
Take `Cc1c(Cl)c(Cl)c(Cl)c(Cl)c1Cl`: the T/C runs as follows: (endpoint: mean survival time, dose: 100.0 mg/kg/injection, schedule: Q01DX009 (ip), vehicle: saline with Tween-80) 93 % of control; (endpoint: mean survival time, dose: 200.0 mg/kg/injection, schedule: Q01DX009 (ip), vehicle: saline with Tween-80) 93 % of control; (endpoint: mean survival time, dose: 400.0 mg/kg/injection, schedule: Q01DX009 (ip), vehicle: saline with Tween-80) 92 % of control.
Turning to `CC([N+](=O)[O-])S(C)(=O)=O` (centres undefined), the T/C by setting is: under setting [1], 97 % of control; (endpoint: mean survival time, dose: 200.0 mg/kg/injection, schedule: Q01DX001 (ip), vehicle: saline with Tween-80) 101 % of control; (endpoint: mean survival time, dose: 400.0 mg/kg/injection, schedule: Q01DX001 (ip), vehicle: saline with Tween-80) 101 % of control.
Take `CNC[C@@H](O)c1ccc(O)c(O)c1`: the T/C runs as follows: (endpoint: mean survival time, dose: 1.0 mg/kg/injection, schedule: Q01DX001 (ip), vehicle: saline) 97 % of control; (endpoint: mean survival time, dose: 2.0 mg/kg/injection, schedule: Q01DX001 (ip), vehicle: saline) 100 % of control; (endpoint: mean survival time, dose: 2.5 mg/kg/injection, schedule: Q01DX009 (ip), vehicle: saline) 104 % of control; (endpoint: mean survival time, dose: 4.0 mg/kg/injection, schedule: Q01DX001 (ip), vehicle: saline) 107 % of control; (endpoint: mean survival time, dose: 5.0 mg/kg/injection, schedule: Q01DX009 (ip), vehicle: saline) 104 % of control; (endpoint: mean survival time, dose: 8.0 mg/kg/injection, schedule: Q01DX001 (ip), vehicle: saline) 103 % of control.
As to `COC(OC)C(OC(C)=O)C(OC(C)=O)C(COC(C)=O)OC(C)=O` (centres undefined), the T/C is, setting by setting: (endpoint: mean survival time, dose: 100.0 mg/kg/injection, schedule: Q01DX001 (ip), vehicle: saline) 107 % of control; (endpoint: mean survival time, dose: 200.0 mg/kg/injection, schedule: Q01DX001 (ip), vehicle: saline) 95 % of control; (endpoint: mean survival time, dose: 400.0 mg/kg/injection, schedule: Q01DX001 (ip), vehicle: saline) 101 % of control.
On to `CC[C@H]1CN2CCc3cc(OC)c(OC)cc3[C@@H]2C[C@@H]1C[C@H]1NCCc2cc(O)c(OC)cc21`, for which the T/C was 107 % of control (endpoint: mean survival time, dose: 0.5 mg/kg/injection, schedule: Q01DX015 (ip), vehicle: saline); 110 % of control (endpoint: mean survival time, dose: 1.0 mg/kg/injection, schedule: Q01DX015 (ip), vehicle: saline); 122 % of control (endpoint: mean survival time, dose: 2.0 mg/kg/injection, schedule: Q01DX015 (ip), vehicle: saline); 115 % of control (endpoint: mean survival time, dose: 8.0 mg/kg/injection, schedule: Q01DX015 (ip), vehicle: saline); 89 % of control (endpoint: mean survival time, dose: 16.0 mg/kg/injection, schedule: Q01DX015 (ip), vehicle: saline).
In the case of `Nc1ccc(OCCc2c(N)nc(N)nc2N)cc1`, the T/C (endpoint: mean survival time, dose: 100.0 mg/kg/injection, schedule: Q04DX002 (ip), vehicle: Klucel (hydroxypropylcellulose) (HPC)) was 98 % of control; the T/C (endpoint: mean survival time, dose: 200.0 mg/kg/injection, schedule: Q04DX002 (ip), vehicle: Klucel (hydroxypropylcellulose) (HPC)) was 102 % of control; the T/C (endpoint: mean survival time, dose: 400.0 mg/kg/injection, schedule: Q04DX002 (ip), vehicle: Klucel (hydroxypropylcellulose) (HPC)) was 98 % of control.
On to `CCCCNC(C)(C)C(SS)c1ccc(Cl)cc1` (centres undefined), for which the T/C by setting is: under setting [2], 94 % of control; under setting [3], 105 % of control.
In the case of `O=c1[nH]c2cc3ccccc3cc2c(=O)o1`, the T/C under setting [4] was 92 % of control, the T/C under setting [5] was 88 % of control and the T/C under setting [6] was 98 % of control.
